Values of other authors in patent US20160168384A1, “PORPHYRINOID COMPONENTS, METHOD AND APPARATUS FOR WATER PHOTODISINFECTION” (NIMARTECH LIMITED, priority 2013, published 2016).

System: faecal coliforms
Settings: wastewater; micromolar porphyrin; visible light or sunlight, about 4 hours

SMILES: C[n+]1ccc(-c2c3nc(c(-c4cc[n+](C)cc4)c4ccc([nH]4)c(-c4cc[n+](C)cc4)c4nc(c(-c5cc[n+](C)cc5)c5ccc2[nH]5)C=C4)C=C3)cc1 [Sample C1, meso-tetra(N,N,N,N-methyl-pyridyl)porphine]
- decrease of coliform counts: at least 5 logs
